Experimental data: PubChem BioAssay AID1963964 (Molecular Pharmacology Branch, DTP, NCI, 2024)

Tested on: 997726-040-R-J2-PDC tumor spheroids, viability
Assay: Anticancer human tumor 997726-040-R-J2-PDC patient-derived squamous cell lung carcinoma cell line growth inhibition [PI3K]
Details: spheroids with HUVEC and MSC; for IC50: curve of first compound; for viability, T/C: stronger effect = lower value; active = viability on the fitted dose curve at most 10% of control; inactive = the rest
Summary of the method: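 Tumor cells were combined with HUVEC and MSCs into spheroids, then dosed with PI3K-inhibitor combinations over half-log ranges capped near clinical Cmax or 10 microM.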

[1] = second compound 0.0316 µM, first compound 0.0316 µM
[2] = second compound 0.0316 µM, first compound 0.1 µM
[3] = second compound 0.0316 µM, first compound 0.316 µM
[4] = second compound 0.0316 µM, first compound 1 µM
[5] = second compound 0.0316 µM, first compound 3.16 µM
[6] = second compound 0.0316 µM, first compound 10 µM
[7] = second compound 0.1 µM, first compound 0.0316 µM
[8] = second compound 0.1 µM, first compound 0.1 µM
[9] = second compound 0.1 µM, first compound 0.316 µM
[10] = second compound 0.1 µM, first compound 1 µM
[11] = second compound 0.1 µM, first compound 3.16 µM
[12] = second compound 0.1 µM, first compound 10 µM
[13] = second compound 0.316 µM, first compound 0.0316 µM
[14] = second compound 0.316 µM, first compound 0.1 µM
[15] = second compound 0.316 µM, first compound 0.316 µM
[16] = second compound 0.316 µM, first compound 1 µM
[17] = second compound 0.316 µM, first compound 3.16 µM
[18] = second compound 0.316 µM, first compound 10 µM
[19] = second compound 1 µM, first compound 0.0316 µM
[20] = second compound 1 µM, first compound 0.1 µM
[21] = second compound 1 µM, first compound 0.316 µM
[22] = second compound 1 µM, first compound 1 µM
[23] = second compound 1 µM, first compound 3.16 µM
[24] = second compound 1 µM, first compound 10 µM
[25] = second compound 3.16 µM, first compound 0.0316 µM
[26] = second compound 3.16 µM, first compound 0.1 µM
[27] = second compound 3.16 µM, first compound 0.316 µM
[28] = second compound 3.16 µM, first compound 1 µM
[29] = second compound 3.16 µM, first compound 3.16 µM
[30] = second compound 3.16 µM, first compound 10 µM
[31] = second compound 10 µM, first compound 0.0316 µM
[32] = second compound 10 µM, first compound 0.1 µM
[33] = second compound 10 µM, first compound 0.316 µM
[34] = second compound 10 µM, first compound 1 µM
[35] = second compound 10 µM, first compound 3.16 µM
[36] = second compound 10 µM, first compound 10 µM
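Note: spheroids exposed to compounds for seven days before readout.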

CNC(=O)c1ccc(N2C(=S)N(c3ccc(C#N)c(C(F)(F)F)c3)C(=O)C2(C)C)cc1F + CC(Nc1ccc2c(c1)OCCn1cc(N3C(=O)OCC3C(F)F)nc1-2)C(N)=O
< 0.0316 µM: IC50 (second compound 0.1 µM) | IC50 (second compound 0.316 µM) | IC50 (second compound 1 µM)
inactive: viability, T/C (second compound 0.00316 µM, first compound 0.0316 µM) 82.6% | viability, T/C (second compound 0.00316 µM, first compound 0.1 µM) 86.7% | viability, T/C (second compound 0.00316 µM, first compound 0.316 µM) 89% | viability, T/C (second compound 0.00316 µM, first compound 1 µM) 88.2% | viability, T/C (second compound 0.00316 µM, first compound 3.16 µM) 94.8% | viability, T/C (second compound 0.00316 µM, first compound 10 µM) 83.5% | viability, T/C (second compound 0.01 µM, first compound 0.0316 µM) 74.9% | viability, T/C (second compound 0.01 µM, first compound 0.1 µM) 71.5% | viability, T/C (second compound 0.01 µM, first compound 0.316 µM) 79.6% | viability, T/C (second compound 0.01 µM, first compound 1 µM) 72.8% | viability, T/C (second compound 0.01 µM, first compound 3.16 µM) 78.8% | viability, T/C (second compound 0.01 µM, first compound 10 µM) 72.3% | viability, T/C [1] 59.5% | viability, T/C [2] 68.3% | viability, T/C [3] 61% | viability, T/C [4] 61.4% | viability, T/C [5] 67.2% | viability, T/C [6] 57.4% | viability, T/C [7] 50.2% | viability, T/C [8] 45.5% | viability, T/C [9] 45.1% | viability, T/C [10] 44.3% | viability, T/C [11] 42.4% | viability, T/C [12] 40.3% | viability, T/C [13] 34.6% | viability, T/C [14] 32.5% | viability, T/C [15] 31.8% | viability, T/C [16] 33% | viability, T/C [17] 28.9% | viability, T/C [18] 28.6% | viability, T/C [19] 34.3% | viability, T/C [20] 27.8% | viability, T/C [21] 26.7% | viability, T/C [22] 29.6% | viability, T/C [23] 21.4% | viability, T/C [24] 24.2%
> 10 µM: IC50 (second compound 0.00316 µM) | IC50 (second compound 0.01 µM) | IC50 (second compound 0.0316 µM)

C=CC(=O)N1CCN(c2nc(=O)n(-c3c(C)ccnc3C(C)C)c3nc(-c4c(O)cccc4F)c(F)cc23)C(C)C1 (stereo unspecified) + Cc1nc(NC(=O)N2CCCC2C(N)=O)sc1-c1ccnc(C(C)(C)C(F)(F)F)c1
> 10 µM: IC50 (second compound 0.0316 µM) | IC50 (second compound 0.1 µM) | IC50 (second compound 0.316 µM)
< 0.0316 µM: IC50 (second compound 1 µM) | IC50 (second compound 3.16 µM) | IC50 (second compound 10 µM)
inactive: viability, T/C [1] 82.8% | viability, T/C [2] 84.3% | viability, T/C [3] 101% | viability, T/C [4] 108% | viability, T/C [5] 102% | viability, T/C [6] 109% | viability, T/C [7] 76.3% | viability, T/C [8] 72.7% | viability, T/C [9] 71.1% | viability, T/C [10] 86.8% | viability, T/C [11] 101% | viability, T/C [12] 89.3% | viability, T/C [13] 53.3% | viability, T/C [14] 55.9% | viability, T/C [15] 61% | viability, T/C [16] 59.5% | viability, T/C [17] 63.6% | viability, T/C [18] 65.6% | viability, T/C [19] 40.8% | viability, T/C [20] 41.8% | viability, T/C [21] 45% | viability, T/C [22] 39.8% | viability, T/C [23] 52% | viability, T/C [24] 46.2% | viability, T/C [25] 30.9% | viability, T/C [26] 28.6% | viability, T/C [27] 33.6% | viability, T/C [28] 28.6% | viability, T/C [29] 34.1% | viability, T/C [30] 32.2% | viability, T/C [31] 16.2% | viability, T/C [32] 16% | viability, T/C [33] 15.9% | viability, T/C [34] 17.4% | viability, T/C [35] 22% | viability, T/C [36] 9.67%

CC(Cn1ccc(-c2ccc(C#N)c(Cl)c2)n1)NC(=O)c1cc(C(C)O)[nH]n1 (stereo unspecified) + Cc1nc(NC(=O)N2CCCC2C(N)=O)sc1-c1ccnc(C(C)(C)C(F)(F)F)c1
> 10 µM: IC50 (second compound 0.0316 µM) | IC50 (second compound 0.1 µM) | IC50 (second compound 0.316 µM)
inactive: viability, T/C [1] 88.7% | viability, T/C [2] 92.7% | viability, T/C [3] 90.5% | viability, T/C [4] 95.7% | viability, T/C [5] 86.2% | viability, T/C [6] 86% | viability, T/C [7] 76% | viability, T/C [8] 74.3% | viability, T/C [9] 80.2% | viability, T/C [10] 74.3% | viability, T/C [11] 78.9% | viability, T/C [12] 72.1% | viability, T/C [13] 62.5% | viability, T/C [14] 53.5% | viability, T/C [15] 59.5% | viability, T/C [16] 57.5% | viability, T/C [17] 58.9% | viability, T/C [18] 54% | viability, T/C [19] 45% | viability, T/C [20] 44.7% | viability, T/C [21] 47.3% | viability, T/C [22] 39.8% | viability, T/C [23] 43.1% | viability, T/C [24] 41.8% | viability, T/C [25] 29.4% | viability, T/C [26] 27.1% | viability, T/C [27] 32% | viability, T/C [28] 33.4% | viability, T/C [29] 30.6% | viability, T/C [30] 26.7% | viability, T/C [31] 15.4% | viability, T/C [32] 14.6% | viability, T/C [33] 16.2% | viability, T/C [34] 15.1% | viability, T/C [35] 14.4% | viability, T/C [36] 9.85%
< 0.0316 µM: IC50 (second compound 1 µM) | IC50 (second compound 3.16 µM) | IC50 (second compound 10 µM)
